According to patent US12433868B2 (priority 2010, dated 2025):

How the values were obtained:
Vaccinia virus (NYCBH) = assay: microbe, parasite or virus in culture; type: cell-based; details: Orthopoxvirus vaccinia, Vero
Pichinde virus = type: cell-based
[1] = tested on: Rift Valley fever virus (strain MP12); type: cell-based
[2] = tested on: respiratory syncytial virus; type: cell-based
cytomegalovirus = type: cell-based
Zaire 79 strain of MPX = tested on: Zaire 79 strain of MPX; parameters: species or system cynomolgus monkeys (Macaca fascicularis); details: cynomolgus monkey, in vivo
[3] = both, human, in vivo, po, 400 mg
clinical = details: both, human, in vivo, po, 400 mg
vaccinia virus (VV) = details: read-out: 50% effective concentration [EC50], inhibition of virus replication, in vitro; cited from earlier work
cowpox virus (CV) = details: read-out: 50% effective concentration [EC50], inhibition of virus replication, in vitro; cited from earlier work
ectromelia virus (ECTV) = details: read-out: 50% effective concentration [EC50], inhibition of virus replication; cited from earlier work
monkeypox = details: read-out: 50% effective concentration [EC50], inhibition of virus replication, in vitro; cited from earlier work
camelpox = details: read-out: 50% effective concentration [EC50], inhibition of virus replication; cited from earlier work
variola viruses = details: read-out: 50% effective concentration [EC50], inhibition of virus replication, in vitro; cited from earlier work
VV = details: orally twice a day at 15 or 50 mg/kg of body weight for 5 days; intravenous VV; cited from earlier work
ECTV, VV, or CV = details: mouse, in vivo; cited from earlier work

Q: Which results are given for `O=C(NN1C(=O)C2C3C=CC(C4CC34)C2C1=O)c1ccc(C(F)(F)F)cc1` (single isomer, unassigned) [Form I, 4-trifluoromethyl-N-(3,3a,4,4a,5,5a,6,6a-octahydro-1,3-dioxo-4,6-ethenocycloprop[f]isoindol-2(1H)-yl)-benzamide]?
A: inhibition at 5 µM (Vaccinia virus (NYCBH); 72 h, read-out: inhibition of vaccinia virus-induced CPE): > 50%; EC50 (Vaccinia virus (NYCBH); read-out: EC50 in the CPE assay): 50 nM; inhibition of replication of unrelated virus (Pichinde virus): do not inhibit; inhibition of replication of unrelated virus [1]: do not inhibit; inhibition of replication of unrelated virus [2]: do not inhibit; inhibition of replication of unrelated virus (cytomegalovirus): do not inhibit; amount of viral DNA compared to vehicle-treated animals (Zaire 79 strain of MPX): significantly decrease; reduction in the level of virus replication compared to vehicle-treated group (Zaire 79 strain of MPX): more than 1,000 fold; survival (Zaire 79 strain of MPX): survive; AUC0-τ, Mean [3]: 15624.5 ng·h/mL; AUC0-∞, Mean [3]: 19922.02 ng·h/mL; Cmax, Mean [3]: 1068.9 ng/mL; Tmax, Mean [3]: 3.8 h; t1/2, Mean [3]: 27.446 h; Cmax (clinical; Median): 1170 ng/mL; Tmax (clinical; Median): 3.5 h; half-life (clinical; t1/2, Median): 1510 min

Q: With `O=C(NN1C(=O)C2C3C=CC(C4CC34)C2C1=O)c1ccc(C(F)(F)F)cc1` (stereo not shown) [ST-246, 4-trifluoromethyl-N-(3,3a,4,4a,5,5a,6,6a-octahydro-1,3-dioxo-4,6-ethenocycloprop[f]isoindol-2(1H)-yl)-benzamide] as the molecule, how does the EC50 (vaccinia virus (VV)) read?
A: ≤ 70 nM

Q: And the EC50 (cowpox virus (CV))?
A: ≤ 70 nM

Q: What about the EC50 (ectromelia virus (ECTV)) of the same molecule?
A: ≤ 70 nM

Q: And the EC50 (monkeypox)?
A: ≤ 70 nM

Q: What about the EC50 (camelpox) of the same molecule?
A: ≤ 70 nM

Q: What about the EC50 (variola viruses) of the same molecule?
A: ≤ 70 nM

Q: What about the tail lesions (VV) of the same molecule?
A: significantly reduced

Q: And the “preventing or reducing mortality” value (ECTV, VV, or CV)?
A: highly effective in preventing or reducing mortality

Q: And the “toxicity in animal models” value (ECTV, VV, or CV)?
A: nontoxic

Q: Which “Cmax, Median” value [3] does the source give for `O=C(NN1C(=O)C2C3C=CC(C4CC34)C2C1=O)c1ccc(C(F)(F)F)cc1` (single isomer, unassigned) [Form V, 4-trifluoromethyl-N-(3,3a,4,4a,5,5a,6,6a-octahydro-1,3-dioxo-4,6-ethenocycloprop[f]isoindol-2(1H)-yl)-benzamide] here?
A: 1180 ng/mL

Q: And the “Tmax, Median” value [3]?
A: 4 h

Q: What about the “t1/2, Median” value [3] of the same molecule?
A: 16.647 h

Q: And the AUC (clinical; AUC0-τ, Mean)?
A: 20100 ng·h/mL

Q: And the AUC(0-inf) (clinical; AUC0-∞, Mean)?
A: 22000 ng·h/mL

Q: And the Cmax (clinical; Mean)?
A: 1230 ng/mL

Q: What about the Tmax (clinical; Mean) of the same molecule?
A: 3.8 h

Q: And the half-life (clinical; t1/2, Mean)?
A: 1750 min
